Reference: article PMC3411110, “AdpA, key regulator for morphological differentiation regulates bacterial chromosome replication” (Open Biology, 2012)

What was measured:
AdpA (AdpAHis6) [1] = molecular target: T1, AdpA (AdpAHis6) (Streptomyces coelicolor, UniProt Q9L062); test: effect on AdpA-oriC complex formation; details: inhibits DNA binding; direct ADP binding not measured
DnaA (DnaAHis6) = DnaA (DnaAHis6) (Streptomyces coelicolor, UniProt P27902); test: SPR of DnaA on immobilised oriC DNA with and without ATP; details: 3 mM ATP; HBS200 buffer pH 7.4, 10 mM MgOAc; 283-bp oriC fragment; promotes DNA binding; direct ATP binding not measured
DnaA (DnaAHis6), sequence (P27902 whole entry, the tested form may be a part): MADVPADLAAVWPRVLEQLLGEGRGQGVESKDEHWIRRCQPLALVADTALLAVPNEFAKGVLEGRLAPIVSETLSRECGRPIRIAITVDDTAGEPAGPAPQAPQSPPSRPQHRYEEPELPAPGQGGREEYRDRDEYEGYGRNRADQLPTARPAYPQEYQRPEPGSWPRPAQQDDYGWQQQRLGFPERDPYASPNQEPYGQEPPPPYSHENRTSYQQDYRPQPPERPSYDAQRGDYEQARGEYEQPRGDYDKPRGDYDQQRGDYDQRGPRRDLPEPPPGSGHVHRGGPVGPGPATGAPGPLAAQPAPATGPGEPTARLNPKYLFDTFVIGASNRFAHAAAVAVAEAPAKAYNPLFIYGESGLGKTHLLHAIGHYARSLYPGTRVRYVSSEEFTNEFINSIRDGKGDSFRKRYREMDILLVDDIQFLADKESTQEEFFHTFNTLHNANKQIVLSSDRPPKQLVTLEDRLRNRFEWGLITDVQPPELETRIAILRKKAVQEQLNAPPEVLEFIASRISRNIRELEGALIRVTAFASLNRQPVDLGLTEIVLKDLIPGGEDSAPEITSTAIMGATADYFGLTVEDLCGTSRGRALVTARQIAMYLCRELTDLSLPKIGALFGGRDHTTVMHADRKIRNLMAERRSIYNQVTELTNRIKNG

AdpA (AdpAHis6) [2] = molecular target: T1, AdpA (AdpAHis6); test: SPR of AdpA on immobilised oriC DNA; glutaraldehyde cross-linking of AdpA-oriC complexes; details: 3 mM ATP in SPR, increasing ATP in cross-linking with 100 nM AdpA; HBS200 buffer pH 7.4, 10 mM MgOAc; 283-bp oriC fragment; inhibits DNA binding; direct ATP binding not measured

T1 sequence (Q9L062 entry or part of it): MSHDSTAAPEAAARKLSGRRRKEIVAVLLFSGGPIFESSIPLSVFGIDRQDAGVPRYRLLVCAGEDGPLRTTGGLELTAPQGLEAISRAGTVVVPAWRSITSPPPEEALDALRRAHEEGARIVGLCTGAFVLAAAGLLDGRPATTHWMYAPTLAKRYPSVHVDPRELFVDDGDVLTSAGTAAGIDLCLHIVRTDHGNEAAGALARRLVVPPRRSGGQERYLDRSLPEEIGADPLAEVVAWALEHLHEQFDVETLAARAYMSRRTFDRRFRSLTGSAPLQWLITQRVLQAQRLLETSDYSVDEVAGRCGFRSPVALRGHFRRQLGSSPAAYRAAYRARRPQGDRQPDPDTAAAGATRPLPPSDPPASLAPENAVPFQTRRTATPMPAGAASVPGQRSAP

Compound | effect on AdpA-oriC complex formation (AdpA (AdpAHis6) [1]) | SPR of DnaA on immobilised oriC DNA with and without ATP (DnaA (DnaAHis6)) | SPR of AdpA on immobilised oriC DNA; glutaraldehyde cross-linking of AdpA-oriC c (AdpA (AdpAHis6) [2])
Nc1ncnc2c1ncn2[C@@H]1O[C@H](COP(=O)(O)OP(=O)(O)O)[C@@H](O)[C@H]1O [ADP] | a similar effect was also observed in the presence of ADP |  | 
Nc1ncnc2c1ncn2[C@@H]1O[C@H](COP(=O)(O)OP(=O)(O)OP(=O)(O)O)[C@@H](O)[C@H]1O [ATP] |  | binds DnaA box(es), particularly weak ones, more efficiently in the presence of ATP | ATP at the same concentration used for DnaA-binding experiments nearly completely abolished binding of AdpA
